Measured values published in article PMC12746157, “Light-Regulated Agonists Spatiotemporally Activating the Vitamin D Receptor Mitigate Psoriasis-like Inflammation in Mice without Inducing Hypercalcemia” (ACS Central Science, 2025).

Tests used:
Assay type in all cases: physicochemical
[1] = Proportions of cis and trans at the photostationary state in DMSO from absorbance spectra (Ernst Fischer method)
Experimental: 2. Photochemical characterization.
(§1) A 50 µM solution of each compound in DMSO was dispensed into a transparent 96-well plate (200 µL per well). The absorption spectra were recorded from 300 to 600 nm with 2 nm fixed intervals using a Tecan Spark 20M Multimode microplate reader. Initial measurements were performed in the dark, followed by spectra acquired immediately after each 3 min period of light irradiation at different wavelengths using 96-well LED array plates (LEDA Teleopto). Theoretical absorbance spectra corresponding to the pure cis isomer (100%) of each compound were calculated in order to obtain the theoretical percentage of cis isomer at each wavelength, according to the method described by Ernst Fischer (1967). […]
Table S6. Proportions of cis and trans at the photostationary state in DMSO. […]

[2] = UV-Vis absorption spectra and thermal relaxation of the cis isomers in DMSO; details: 60 μM in 100% DMSO, 37 °C
Experimental: (§2) The UV–vis absorbance spectra of all molecules were measured in the dark and after the application of light of different wavelengths ranging from 365 to 770 nm (Figure A and Figures S1–S3). […] Consequently, violet/UV light below 405 nm efficiently promoted photoisomerization, which produced a dramatic decrease in the π-π* band and a significant increase in the n-π* band at around 445 nm (Table ). […] The proportion of molecules at the PSS in trans isomer upon constant illumination with light at 525 nm and cis at 365 nm was in general above 50%, reaching a remarkable >99% for compound 11d (Table and Figures S4 and S5). […] The greater stability of the trans isomer was consistent with previous quantum mechanical and molecular mechanics predictions. Measuring the photoisomerization properties of compound PhotoVDRM allowed us to determine the photoisomerization quantum yields of the compound by solving a differential equation for photoisomerization. We used MATLAB to perform regression and arrive at the following photoisomerization quantum yields: ϕ365 nm (trans) = 0.0427, ϕ365 nm (cis) = 0.0501, ϕ470 nm (trans) = 0.1857, and ϕ470 nm (cis) = 0.2281 (Figure S9). Compound PhotoVDRM was also evaluated in aqueous buffer used for pharmacological experiments (0.5% DMSO) showing a thermal relaxation of 3 h, almost 7 times faster than in pure DMSO (Figure B). […] A deeper photocharacterization of PhotoVDRM allowed us to measure the kinetics of photoconversion upon constant illumination with two wavelengths and three light intensities (Figure D and Figure S10). […] Indeed, with LED devices producing light at intensities as low as 0.05 mW/mm^2 we were able to transform trans to cis in around 15.5 s. This time was reduced to 6 and 2 s when the light intensity was increased to 0.15 and 0.75 mW/mm^2. […] Therefore, we proceeded to test the ability of the chemical library to activate the VDR under different light conditions.
2. Photochemical characterization. […]
as §1, with “(200” for “A 50 µM solution of each compound in DMSO was dispensed into a transparent 96-well plate (200”, “(1967). Thermal relaxation kinetics of the experimental cis isomers were assessed in quartz cuvettes (10 mm optical path) containing freshly prepared 50” for “(1967).”
Dark state absorbance at 365 nm was recorded at 37
ºC using a ThermoFisher Evolution 350 UV-Vis spectrophotometer. Samples were then irradiated for 3 minutes at 365 nm with a CoolLED pE-4000 light sourceto induce trans → cis photoisomerization.. Absorbance at 365 nm was subsequently monitored over 48 h: every 15 min during the first 24 h, and every 60 min during the following 24 h. Relaxation half-lives were determined by fitting the absorbance-time data to a […] exponential model using GraphPad Prism v10.4.1. […]

[3] = Photostationary state (PSS) determination by HPLC-MS in aqueous assay buffer; details: 21 °C, HPLC-MS, 60 μM, aqueous buffer 0.6% DMSO
Experimental: as §2
Photostationary state (PSS) determination. In a transparent vial, solutions of the compounds were prepared at a concentration of 60 µM from a 10 mM stock in DMSO, using the assay buffer of pharmacological experiments for dilution. Prior to illumination, a volume of 500 µL was transferred to an amber vial for the "dark" sample. The same procedure was repeated after exposing the transparent vial containing the 60 µM solutions to the following light conditions:
365nm for 3 minutes and 525nm for 3 minutes. […]
difference on isomeric proportions. For each sample, 20 µL was analyzed by HPLC-MS, and the isomer ratios were determined at the isosbestic point.
Isosbestic point determination. The solvent percentage for the elution of each isomer were calculated based on their retention times from HPLC analysis. Subsequently, 50 µM solutions were prepared from the 10 mM DMSO stock solution of each compound using the previously determined HPLC solvent mixture. The UV spectrum for each solution was recorded after illumination at 365 nm (30 seconds), at 400 nm (30 seconds), and at 525 nm (30 seconds). The spectra were overlaid to identify the isosbestic point of maximum intensity.
HPLC conditions. Analytical HPLC was performed on a Thermo Ultimate 3000SD (Thermo Scientific Dionex) coupled to a PDA detector and Mass Spectrometer LTQ XL ESI-ion trap (Thermo Scientific). Cromatographic separations were performed using a ZORBAX Eclipse Plus C18 (4.6 x 150mm; 3.5µm) column. The mobile phase consisted of an isocratic mixture of solvent A (water with 0.05% of formic acid) and solvent B (acetonitrile with 0.05% formic acid) at a 3:7 ratio for compounds 10a-d and a 2:3 ratio for compounds 11a-d and 12a-d. […]

SMILES: Cc1cc(/N=N/c2cccc(-c3ccc(CO)cc3C)c2)ccc1OCC(O)C(C)(C)C (stereo not shown) [Compound 12c]
- %cis at the photostationary state ([1]; 365 nm): 96,95%
- %trans at the photostationary state ([1]; 365 nm): 3,05%
- %cis at the photostationary state ([1]; 380 nm): 95,69%
- %trans at the photostationary state ([1]; 380 nm): 4,31%
- %cis at the photostationary state ([1]; 405 nm): 59,74%
- %trans at the photostationary state ([1]; 405 nm): 40,26%
- %cis at the photostationary state ([1]; 420 nm): 56,13%
- %trans at the photostationary state ([1]; 420 nm): 43,87%
- %cis at the photostationary state ([1]; 470 nm): 28,95%
- %trans at the photostationary state ([1]; 470 nm): 71,05%
- %cis at the photostationary state ([1]; 500 nm): 30,48%
- %trans at the photostationary state ([1]; 500 nm): 69,52%
- %cis at the photostationary state ([1]; 530 nm): 26,87%
- %trans at the photostationary state ([1]; 530 nm): 73,13%
- t 1/2 (thermal relaxation of cis) [2]: 23.2 h
- λn−π* (cis) ([2]; after illumination): 444 nm
- λπ–π* (trans) ([2]; dark): 364 nm
- PSS365 (% cis) ([3]; 3 min illumination 365 nm): 87%
- PSS525 (%trans) ([3]; 3 min illumination 525 nm): 86%
